Assay results from patent US8178512B2, “Methods and compositions for treating diseases and disorders associated with siglec-8” (Johns Hopkins University, priority 2004, dated 2012).
pKd: −log10 of the molar value. Values joined by “and” are separate entries in the source; they are usually repeats but may differ in a detail not shown here. Identical values can stand only once. “Also recorded” adds a separate entry of the source. Like-named read-outs stand apart in the source and are kept apart here.

What was measured:
[1] = target: T1, Siglec-F (Mus musculus, UniProt Q920G3); settings: Consortium website; cited from earlier work
T1 sequence (Q920G3 17-569): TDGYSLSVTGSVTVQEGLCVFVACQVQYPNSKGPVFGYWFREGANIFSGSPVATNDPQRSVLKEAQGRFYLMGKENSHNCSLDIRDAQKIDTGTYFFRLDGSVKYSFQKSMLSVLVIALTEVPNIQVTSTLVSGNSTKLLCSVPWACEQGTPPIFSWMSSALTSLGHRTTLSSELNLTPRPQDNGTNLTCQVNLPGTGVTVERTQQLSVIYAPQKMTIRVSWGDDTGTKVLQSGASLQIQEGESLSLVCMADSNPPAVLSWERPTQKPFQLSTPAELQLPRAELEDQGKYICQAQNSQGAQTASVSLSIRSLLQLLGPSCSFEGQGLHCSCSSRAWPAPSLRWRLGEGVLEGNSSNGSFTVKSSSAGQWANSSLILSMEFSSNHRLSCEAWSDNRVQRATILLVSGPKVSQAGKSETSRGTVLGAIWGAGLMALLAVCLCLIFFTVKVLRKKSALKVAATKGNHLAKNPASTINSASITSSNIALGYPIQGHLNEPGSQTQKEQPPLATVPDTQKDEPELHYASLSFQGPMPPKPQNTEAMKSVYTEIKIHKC

[2] = target: T2, Siglec-8-Ig fusion protein (Homo sapiens, UniProt Q9NYZ4); experiment: Glycan array screening: Siglec-8-Ig binding to biotinylated glycosides on streptavidin-coated 384-well plates; settings: 172 structures screened
T2 construct: The extracellular domain of Siglec-8 was inserted in frame with a Factor Xa cleavage site and the Fc portion of human IgG1; made in house; host or cells: CHOEA1 cells (electroporated), purified from supernatants on Protein A Sepharose
Experimental: (§1) The extracellular domain of Siglec-8 was inserted in frame with a Factor Xa cleavage site and the Fc portion of human IgG1, expanded in electroporated CHOEA1 cells, and then purified from supernatants (final concentration: 2.4 mg/ml) using Protein A Sepharose as previously described (Kikly, K. K., Bochner, B. S., Freeman, S., Tan, K. B., Gallagher, K. T., D'Alessio, K., Holmes, S. D., Abrahamson, J., Hopson, C. B., Fischer, E. I., Erickson-Miller, C. L., Tachimoto, H., Schleimer, R. P., and White, J. R. (2000) J. Allergy Clin. Immunol. 105, 1093-1100).
Biotinylated glycosides (Korchagina, E., and Bovina, N. V. (1992) Bioorg Khim 18, 283-298) were coated in replicates of n=3 or n=4 on streptavidin-coated microtiter plates (Pierce Reacti-Bind™ NeutrAvidin™ Coated High Binding Capacity Black 384-Well Plates, Product #15513, Rockford, Ill.). Each well was incubated overnight at 4° C. with 30 pmol/well of glycoside in 25 ul phosphate buffered saline (PBS), pH 7.4. The plates were washed three times with 100 ul PBS using an automated plate washer (Molecular Devices, Sunnyvale, Calif.) and stored sealed at 4° C. in 25 ul/well PBS with 0.1% azide until use. Prior to assay, the plates were washed three times with 100 ul/well wash buffer (20 mM Tris-HCl pH 7.4, 150 mM NaCl, 2 mM CaCl2, 2 mM MgCl2 and 0.05% Tween 20). A stock solution of Siglec-8-Ig (30 ug/ml) was added to each well in 25 ul binding buffer (wash buffer plus 1% BSA) and incubated at room temperature for one hour. The plates were washed three times with 100 ul/well wash buffer and incubated for one hour with 25 ul/well goat anti-human IgG-Alexa 488 (Molecular Probes, Cat. No. A11013, Eugene, Oreg.) at 5 ug/ml in binding buffer. The plates were washed and read in 25 ul wash buffer on a Victor 2™ 1420 Multilabel Counter (PerkinElmer Life Sciences, Fremont, Calif.) at excitation 485/emission 535. The current version of the Consortium glycan array can be viewed at:
(http://www.functionalglycomics.org/static/consortium/resources/resourcecoreh.shtml), experiments were initiated to identify compounds that selectively and specifically bind to Siglec-8. Using Siglec-8-Ig fusion protein, a panel of 172 carbohydrate-based structures (see Table 1) was screened for specific Siglec-8 binding. […] The spacer arm itself, —O(CH2)3NH—CO(CH2)5NH-Biotin, found on many of the other non-binding structures, cannot explain the binding activity for Siglec-8.

[3] = tested on: Siglec-G-Ig fusion protein; settings: Consortium website; cited from earlier work
[4] = target: T3, Siglec-8-Ig (Homo sapiens, UniProt Q9NYZ4); experiment: Siglec-8-Ig binding affinity by surface plasmon resonance (SPR), biotinylated glycosides on streptavidin sensor chip; settings: for pKd / Siglec-8-Ig binding by SPR (in words): SPR; for pKd: 25° C., equilibrium binding, Siglec-8-Ig 0.1-18 uM, read-out: dissociation constant (Kd) of Siglec-8-Ig binding; for Siglec-8-Ig binding by SPR (in words): LacNAc reference surface
T3 construct: The extracellular domain of Siglec-8 was inserted in frame with a Factor Xa cleavage site and the Fc portion of human IgG1; made in house; host or cells: CHOEA1 cells (electroporated), purified from supernatants on Protein A Sepharose
Experimental: as §1
All SPR experiments were performed at 25° C. on a Biacore 3000 instrument (Biacore Inc., Piscataway, N.J.). Biotinylated glycosides were captured on research grade streptavidin (SA) coated sensor chips (Sensor Chip SA, Biacore) that were pre-treated according to the manufacturer's instructions. A solution of each biotinylated glycoside (10 fmol/μl) was injected at 2 μl/min in PBS (pH 7.4) containing 0.005% Tween-20 (running buffer) for varying lengths of time (3-7 minutes) until an optimal amount of glycan was captured on each independent surface. Three related glycosides were studied using one SA sensor chip. […] Increasing concentrations of Siglec-8-Ig (0.1-18 uM) were injected at a flow rate of 60 μl/min over all four surfaces of the sensor chip. […] The equilibrium binding data of Siglec-8-Ig were analyzed by non-linear curve fitting using the BIAevaluation software (Biacore Inc.).
The binding affinities of Siglec-8 for #108, #182 and #181 (FIGS. 3A-C, respectively) were determined on a Biacore B3000 instrument using a streptavidin-coated sensor chip. LacNAc glycoside was captured on one surface of the sensor chip and used as negative control (data not shown).

[5] = target: T3, Siglec-8-Ig; experiment: Binding of Siglec-8-Ig to aminoalkyl glycosides immobilized on activated (N-hydroxysuccinimidyl) glass surfaces; settings: highest concentration tested 300 pmol/spot
Excerpt: A description of the printing and evaluation of the full array in this format has been submitted elsewhere (Ola Blixt, Steve Head, Tony Mondala, Christopher Scanlan, Margaret E. Huflejt, Richard Alvarez, Marian C. Bryan, Fabio Fazio, Daniel Calarese, James Stevens, Nahid Razi, David J. Stevens, John J. Skehel, Irma van Die, Dennis Burton, Ian A. Wilson, Richard Cummings, Nicolai Bovin, Chi-Huey Wong, and James C. Paulson ([…]) Proc. Natl. Acad. Sci. USA 101, 17033-17038). FITC-labeled goat anti-human IgG (Fc specific) was from Jackson Immunoresearch (West Grove, Pa.). […]
A solution of 100 μg/ml Siglec-8-Ig and 50 μg/ml FITC-labeled goat anti-human IgG (Fc-specific) in Dulbecco's PBS containing 0.005% Tween 20 was incubated for 30 min at 37° C. to allow complexes to form. […] An image of the bound fluorescence was obtaining using a microarray scanner (ScanArray Express, PerkinElmer Life Sciences, Boston, Mass.). The integrated spot intensities were determined using Metamorph software (Universal Imaging, Downingtown, Pa.). […]

T3 sequence (Q9NYZ4 17-363 limits assumed): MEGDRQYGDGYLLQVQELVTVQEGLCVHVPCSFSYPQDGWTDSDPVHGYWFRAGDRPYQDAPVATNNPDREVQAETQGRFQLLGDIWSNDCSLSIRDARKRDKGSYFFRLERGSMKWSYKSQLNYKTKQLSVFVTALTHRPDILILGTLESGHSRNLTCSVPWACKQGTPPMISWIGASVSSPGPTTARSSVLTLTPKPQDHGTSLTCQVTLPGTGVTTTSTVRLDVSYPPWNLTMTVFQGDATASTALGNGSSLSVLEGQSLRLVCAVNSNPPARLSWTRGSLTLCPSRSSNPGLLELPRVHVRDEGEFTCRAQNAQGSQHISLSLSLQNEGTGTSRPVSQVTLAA
T2 sequence (Q9NYZ4 17-363 limits assumed): as above

## CC(=O)N[C@H]1[C@H](OCCCNC(=O)CCCCCNC(=O)CCCC[C@@H]2SC[C@@H]3NC(=O)N[C@@H]32)O[C@H](CO)[C@@H](O[C@@H]2O[C@H](COS(=O)(=O)O)[C@H](O)[C@H](O[C@]3(C(=O)O)C[C@H](O)[C@@H](NC(C)=O)[C@H]([C@H](O)[C@H](O)CO)O3)[C@H]2O)[C@@H]1O[C@@H]1O[C@@H](C)[C@@H](O)[C@@H](O)[C@@H]1O [#181, NeuAcα2-3(6-O-sulfo)Galβ1-4(Fucα1-3)GlcNAcβ1-O(CH2)3NH—CO(CH2)5NH-Biotin]
[1]
  binding to Siglec-F (in words): selectively binds
[2]
  Siglec-8-Ig binding in glycan array (in words): stands out among all the others for binding activity; also recorded: By far the greatest binding
[2]; listed as 6′-sulfo-sLe^x
  Siglec-8-Ig binding in glycan array (in words): avid binding
[3]
  binding to Siglec-G-Ig fusion protein (in words): failed to show specific binding
[4]; SPR sensorgrams
  association and dissociation profiles (in words): very fast association and dissociation profiles
[4]; listed as 6′-sulfo-sLe^x
  pKd: 5.64 and 5.64 to 5.66
  Siglec-8-Ig binding by SPR (in words): significant binding; also recorded: reproducible binding
[4]
  pKd: 5.60 to 5.70
  Siglec-8-Ig binding by SPR (in words): specific binding

## Galβ1-4GlcNAc [LacNAc, reference compound]
[4]
  Siglec-8-Ig binding by SPR (in words): non-binding

## CC(=O)N[C@H]1[C@H](OCCCNC(=O)CCCCCNC(=O)CCCC[C@@H]2SC[C@@H]3NC(=O)N[C@@H]32)O[C@H](COS(=O)(=O)O)[C@@H](O[C@@H]2O[C@H](CO)[C@H](O)[C@H](O[C@]3(C(=O)O)C[C@H](O)[C@@H](NC(C)=O)[C@H]([C@H](O)[C@H](O)CO)O3)[C@H]2O)[C@@H]1O[C@@H]1O[C@@H](C)[C@@H](O)[C@@H](O)[C@@H]1O [#182, NeuAcα2-3Galβ1-4(Fucα1-3)(6-O-Su)GlcNAcβ1-O(CH2)3NH—CO(CH2)5NH-Biotin]
[2]; listed as 6-sulfo-sLe^x
  Siglec-8-Ig binding in glycan array (in words): failed to bind
[5]
  Siglec-8 binding to glycan immobilized on glass slide (in words): did not support any Siglec-8 binding
[4]; listed as 6-sulfo-sLe^x
  Siglec-8-Ig binding by SPR (in words): failed to support detectable Siglec-8 binding; also recorded: No binding

## CC(=O)N[C@H]1[C@H](OCCNC(=O)CCCCCNC(=O)CCCCCNC(=O)CCCC[C@@H]2SC[C@@H]3NC(=O)N[C@@H]32)O[C@H](CO)[C@@H](O[C@@H]2O[C@H](CO)[C@H](O)[C@H](O[C@]3(C(=O)O)C[C@H](O)[C@@H](NC(C)=O)[C@H]([C@H](O)[C@H](O)CO)O3)[C@H]2O)[C@@H]1O[C@@H]1O[C@@H](C)[C@@H](O)[C@@H](O)[C@@H]1O [#108, NeuAcα2-3Galβ1-4(Fucα1-3)GlcNAcβ1-O(CH2)2NHCO(CH2)5NHCO(CH2)5NH-Biotin]
[2]; listed as sLe^x
  Siglec-8-Ig binding in glycan array (in words): failed to bind
[5]
  Siglec-8 binding to glycan immobilized on glass slide (in words): did not support any Siglec-8 binding
[4]; listed as sLe^x
  Siglec-8-Ig binding by SPR (in words): failed to support detectable Siglec-8 binding; also recorded: No binding
